Data from patent publication US20240116880A1, “CERTAIN CHEMICAL ENTITIES, COMPOSITIONS, AND METHODS” (NeuPharma, Inc, priority 2020, published 2024).

Assay: Accelerated and long-term stability tests of Crystalline Form I
Assay type: physicochemical
Conditions: for Purity: HPLC
Experimental: X-ray powder diffraction (XRPD) patterns were obtained on a Shimadzu XRD-6000. A CuK source (=1.54056 angstrom) operating minimally at 40 kV and 30 mA scans each sample between 5 and 50 degrees 2-theta. The step size is 0.02 degrees 2-theta and the scan speed is 1 second per step.
Differential scanning calorimetry analysis was carried out on a TA Instrument DSC unit (METTLER DSC 3). Samples were heated in non-hermetic aluminum pans from ambient to 300° C. at 20 K/min with a nitrogen purge of 50 mL/min.
High-performance liquid chromatography (HPLC) was performed using the following instrument and/or conditions.
Example 8. Stability Tests of Crystalline Form I
Crystalline Form I was not changed after storage at 40° C./75% RH for 6 months, or storage at 25° C./60% RH for 6 months.

[1] = 25° C./60% RH (closed), 0 month
[2] = 25° C./60% RH (closed), 6 months
[3] = 40° C./75% RH (closed), 0 month
[4] = 40° C./75% RH (closed), 6 months

- Appearance [1]: Yellow powder
- DSC [1]: 186.56 °C
- XRPD [1]: Form I
- Purity [1]: 99.93%
- Appearance [2]: Yellow powder
- DSC [2]: 186.08 °C
- XRPD [2]: Form I
- Purity [2]: 99.92%
- Appearance [3]: Yellow powder
- DSC [3]: 186.56 °C
- XRPD [3]: Form I
- Purity [3]: 99.93%
- Appearance [4]: Yellow powder
- DSC [4]: 186.54 °C
- XRPD [4]: Form I
- Purity [4]: 99.92%
- Change of crystalline form after storage (storage at 25° C./60% RH for 6 months): not changed
- Change of crystalline form after storage (storage at 40° C./75% RH for 6 months): not changed
Structure (SMILES): CCCS(=O)(=O)Nc1cc(F)c(F)c(C(=O)c2ccc3ncc(N4CCOCC4)nc3c2)c1F [Crystalline Form I, N-(2,4,5-trifluoro-3-(3-morpholinoquinoxaline-6-carbonyl)phenyl)propane-1-sulfonamide]
